# Experimental data: article PMC7571175, “N-Benzyl Residues as the P1′ Substituents in Phosphorus-Containing Extended Transition State Analog Inhibitors of Metalloaminopeptidases” (Molecules, 2020)
# Read-outs that look alike come from different tables or passages of the source.
# Assays:
# [1] = molecular target: T1, microsomal alanyl aminopeptidase from porcine kidney (SsAPN) (Sus scrofa, UniProt P15145); assay: Inhibition of porcine kidney alanyl aminopeptidase (enzyme kinetics); type: biochemical; conditions: porcine APN; compounds assayed as racemic mixtures
# T1 construct: Microsomal alanyl aminopeptidase from porcine kidney (SsAPN) was purchased from Sigma-Aldrich; purchased Sigma-Aldrich (Poznań, Poland); host or cells: porcine kidney
# T1 sequence (P15145 1-963): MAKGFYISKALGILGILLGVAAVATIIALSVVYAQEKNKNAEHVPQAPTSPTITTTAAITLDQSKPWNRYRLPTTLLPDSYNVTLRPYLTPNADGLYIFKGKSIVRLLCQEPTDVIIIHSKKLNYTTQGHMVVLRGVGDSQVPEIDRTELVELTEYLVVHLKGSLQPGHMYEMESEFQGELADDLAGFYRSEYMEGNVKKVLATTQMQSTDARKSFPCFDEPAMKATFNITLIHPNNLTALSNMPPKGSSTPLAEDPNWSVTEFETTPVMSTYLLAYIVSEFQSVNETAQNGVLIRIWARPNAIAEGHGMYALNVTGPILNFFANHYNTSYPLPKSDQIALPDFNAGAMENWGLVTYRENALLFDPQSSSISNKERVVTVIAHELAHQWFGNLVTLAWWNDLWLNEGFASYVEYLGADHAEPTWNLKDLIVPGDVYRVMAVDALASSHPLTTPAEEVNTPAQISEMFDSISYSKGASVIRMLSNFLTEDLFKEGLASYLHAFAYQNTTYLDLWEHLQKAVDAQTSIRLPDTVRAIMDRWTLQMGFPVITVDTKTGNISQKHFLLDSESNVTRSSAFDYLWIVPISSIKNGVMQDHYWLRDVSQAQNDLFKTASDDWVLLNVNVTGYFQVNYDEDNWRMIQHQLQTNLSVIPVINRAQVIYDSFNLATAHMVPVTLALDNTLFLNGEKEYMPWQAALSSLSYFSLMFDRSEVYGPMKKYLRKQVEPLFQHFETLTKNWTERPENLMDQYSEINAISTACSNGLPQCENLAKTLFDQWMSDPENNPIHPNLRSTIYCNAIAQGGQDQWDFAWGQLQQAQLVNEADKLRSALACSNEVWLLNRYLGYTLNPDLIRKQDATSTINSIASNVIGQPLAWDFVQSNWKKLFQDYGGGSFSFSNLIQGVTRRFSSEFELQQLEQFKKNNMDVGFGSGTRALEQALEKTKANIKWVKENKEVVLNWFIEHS
# Excerpt: (§1) Chemical and biochemical materials were purchased from Sigma-Aldrich (Poznań, Poland) and Avantor Performance Materials (Gliwice, Poland), and were used without further purification. Fluorogenic substrate Ala-AMC (L-alanine-4-methylcoumaryl-7-amide) was purchased from PeptaNova (Sandhausen, Germany). Microsomal alanyl aminopeptidase from porcine kidney (SsAPN) was purchased from Sigma-Aldrich (Poznań, Poland), and recombinant human alanine aminopeptidase (HsAPN) from R&D System (Minneapolis, MN, USA). Leucine aminopeptidase from porcine kidney (SsLAP) and barley seeds (HvLAP) were isolated and purified according to the procedures described previously. ^1H, ^13C, and ^31P NMR spectra were recorded on a 400YH (JEOL, Tokyo, Japan) spectrometer at 295 K. Mass spectra analyses were performed on a spectrometer LC-MS QDa (Waters e2695, 2489 UV/Vis Detector, Acquity QDa detector). HRMS spectra were registered using a Waters LCT Premier XE mass spectrometer (electrospray ionization, ESI) (Waters, Milford, MA, USA). The progress of the enzymatic reactions was monitored spectrophotometrically (UV-VIS Spectrophotometer, JASCO V-730) by following the change in absorbance at 405 nm (formation of p-nitroaniline), or by measuring fluorescence with a spectrofluorometer SpectraMax Gemini EM (Molecular Devices, San Jose, CA, USA) operating at two wavelengths: excitation 355 nm and emission 460 nm (for AMC).
# (§2) The current studies followed the methodologies of the enzyme kinetic experiments, with calculation of the inhibition constants, and the mechanism of inhibition, which are presented in detail in our previous papers: For microsomal alanyl aminopeptidase from porcine kidney, recombinant human alanine aminopeptidase, leucine aminopeptidase from porcine kidney, and leucine aminopeptidase from barley seeds ([…]).
# [2] = molecular target: T2, recombinant human alanine aminopeptidase (HsAPN) (Homo sapiens, UniProt P15144); assay: Inhibition of recombinant human alanine aminopeptidase (enzyme kinetics); type: biochemical; conditions: for Ki: human APN; for Activity for human APN (in words): summary statement
# T2 construct: purchased R&D System (Minneapolis, MN, USA)
# Excerpt: as §1, §2
# [3] = molecular target: T3, leucine aminopeptidase from porcine kidney (SsLAP) (Sus scrofa, UniProt P28839); assay: Inhibition of porcine kidney leucine aminopeptidase (enzyme kinetics); type: biochemical; conditions: porcine kidney LAP; compounds assayed as racemic mixtures
# T3 construct: Leucine aminopeptidase from porcine kidney (SsLAP) [26] and barley seeds (HvLAP) [21] were isolated and purified; from tissue; host or cells: porcine kidney
# T3 sequence (P28839 1-519): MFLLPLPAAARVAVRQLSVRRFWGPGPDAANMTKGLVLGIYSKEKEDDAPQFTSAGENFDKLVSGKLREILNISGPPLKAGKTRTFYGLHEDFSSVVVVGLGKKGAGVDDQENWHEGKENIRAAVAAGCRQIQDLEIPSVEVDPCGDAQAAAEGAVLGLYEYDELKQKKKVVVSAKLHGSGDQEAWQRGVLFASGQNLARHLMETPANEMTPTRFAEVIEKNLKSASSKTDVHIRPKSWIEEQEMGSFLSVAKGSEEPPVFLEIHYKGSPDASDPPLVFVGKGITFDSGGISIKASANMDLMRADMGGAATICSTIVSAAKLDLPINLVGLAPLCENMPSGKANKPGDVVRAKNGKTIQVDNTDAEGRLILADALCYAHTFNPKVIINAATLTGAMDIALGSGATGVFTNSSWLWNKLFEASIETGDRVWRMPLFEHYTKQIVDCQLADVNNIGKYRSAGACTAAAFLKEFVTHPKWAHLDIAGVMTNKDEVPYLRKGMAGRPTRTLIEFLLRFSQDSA
# Excerpt: as §1, §2
# [4] = molecular target: thermolysin; conditions: competitive tight-binding inhibitor; cited from earlier work
# [5] = molecular target: T3, leucine aminopeptidase from porcine kidney (SsLAP); set-up: method as in doi:10.1016/j.tetlet.2011.04.037; conditions: porcine kidney LAP; reference compound, reported previously; cited from earlier work
# [6] = molecular target: T1, microsomal alanyl aminopeptidase from porcine kidney (SsAPN); set-up: method as in doi:10.1016/j.tetlet.2011.04.037; conditions: porcine APN; reference compound, reported previously; cited from earlier work
# [7] = compounds assayed as racemic mixtures, read-out: Ki HsAPN
# T2 sequence (P15144 whole entry): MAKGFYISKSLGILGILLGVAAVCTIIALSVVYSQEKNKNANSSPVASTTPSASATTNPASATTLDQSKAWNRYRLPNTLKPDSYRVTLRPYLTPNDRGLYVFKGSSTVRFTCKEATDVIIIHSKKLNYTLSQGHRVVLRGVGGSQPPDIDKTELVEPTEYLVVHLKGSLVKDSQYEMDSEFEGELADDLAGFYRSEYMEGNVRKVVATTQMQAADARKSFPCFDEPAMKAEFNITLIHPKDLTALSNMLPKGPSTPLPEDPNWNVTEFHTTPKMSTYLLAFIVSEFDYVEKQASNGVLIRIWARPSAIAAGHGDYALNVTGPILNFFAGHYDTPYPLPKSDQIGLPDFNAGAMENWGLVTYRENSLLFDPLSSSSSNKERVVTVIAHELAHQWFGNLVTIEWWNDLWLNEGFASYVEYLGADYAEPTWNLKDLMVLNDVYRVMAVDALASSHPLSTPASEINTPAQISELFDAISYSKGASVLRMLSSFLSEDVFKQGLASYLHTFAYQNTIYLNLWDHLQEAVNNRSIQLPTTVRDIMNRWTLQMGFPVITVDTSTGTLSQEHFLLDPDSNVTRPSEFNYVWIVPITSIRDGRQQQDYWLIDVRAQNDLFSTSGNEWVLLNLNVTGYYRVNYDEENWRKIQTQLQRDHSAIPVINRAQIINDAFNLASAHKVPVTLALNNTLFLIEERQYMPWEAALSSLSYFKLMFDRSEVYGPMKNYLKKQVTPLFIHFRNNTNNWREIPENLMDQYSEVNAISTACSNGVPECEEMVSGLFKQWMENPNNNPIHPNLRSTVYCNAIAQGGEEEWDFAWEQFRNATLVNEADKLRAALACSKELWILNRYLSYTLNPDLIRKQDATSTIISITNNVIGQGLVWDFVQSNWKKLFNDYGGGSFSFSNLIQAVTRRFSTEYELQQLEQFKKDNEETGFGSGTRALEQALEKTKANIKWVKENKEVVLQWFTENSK
Structure (SMILES),Ki [1] [µM],"Ki ([2]; value of the abstract, read-out: Ki human alanyl aminopeptidase) [µM]","Ki [2, 7] [µM]",Activity for human APN (in words) [2],Ki [3] [µM],Ki thermolysin (in words) [4],Ki [5] [µM],Ki [6] [µM]
"NC(CCc1ccccc1)P(=O)(O)CN(CC(=O)O)Cc1ccc(Br)cc1 (stereo not drawn) [6b, N-{[1-Amino-3-phenylpropyl(hydroxy)phosphoryl]methyl}-N-4-bromobenzylaminoacetic acid]",5.8,,0.13,potent submicromolar activity,168,,,
CC(C)CC(NP(=O)(O)C(Cc1ccccc1)NC(=O)OCc1ccccc1)C(=O)NC(C)C(=O)O (stereo not drawn) [Cbz-PheP[NH]Leu-Ala-OH],,,,,,picomolar range,,
NC(CCc1ccccc1)P(=O)(O)CN(CC(=O)O)Cc1ccccc1 (stereo not drawn) [compound 1],,,,,,,52,3

# Further lines, with some results ahead:
Ki [1] [µM],"Ki ([2]; value of the abstract, read-out: Ki human alanyl aminopeptidase) [µM]","Ki [2, 7] [µM]",Activity for human APN (in words) [2],Ki [3] [µM],Structure (SMILES),Ki thermolysin (in words) [4],Ki [5] [µM],Ki [6] [µM]
7.7,0.102,0.1,potent submicromolar activity,107,"NC(CCc1ccccc1)P(=O)(O)CN(CC(=O)O)Cc1ccc(Cl)cc1Cl (stereo not drawn) [6a, N-{[1-Amino-3-phenylpropyl(hydroxy)phosphoryl]methyl}-N-2,4-dichlorobenzylaminoacetic acid]",,,
34,,1.4,,27,"NC(CCc1ccccc1)P(=O)(O)CN(CC(=O)O)Cc1ccc(C(=O)O)cc1 (stereo not drawn) [6c, N-{[1-Amino-3-phenylpropyl(hydroxy)phosphoryl]methyl}-N-4-carboxybenzylaminoacetic acid]",,,
17,,0.24,potent submicromolar activity,53,"NC(CCc1ccccc1)P(=O)(O)CN(CC(=O)O)Cc1ccc([N+](=O)[O-])cc1 (stereo not drawn) [6d, N-{[1-Amino-3-phenylpropyl(hydroxy)phosphoryl]methyl}-N-4-nitrobenzylaminoacetic acid]",,,
63,,,,29,"NC(CCc1ccccc1)P(=O)(O)CNCC(=O)O (stereo not drawn) [6g, N-{[1-Amino-3-phenylpropyl(hydroxy)phosphoryl]methyl}aminoacetic acid]",,,
